Results as given in patent US6413938B1, “Benzimidazole derivatives for the treatment of viral infections” (The Regents of the University of Michigan, priority 1997, dated 2002).

What was measured:
[1] = system: HCMV strain AD169; test: Human Cytomegalovirus Assay; assay type: cell-based; details: Human betaherpesvirus 5, 120 h; HCMV strain AD169 on MRC5 cell monolayers, 5 days, HCMV DNA by blotting and hybridization
Protocol: HCMV strain AD169 was grown on monolayers of human embryonic lung cells (MRC5 cells) in 96 well plates. After infection of the cells at a ratio of approximately 0.01 infectious virus particles per cell; the compounds to be tested were added to selected wells at six different concentrations, each in triplicate. The same concentrations of compounds were also applied to wells containing monolayers of uninfected cells in order to assess compound cytotoxicity. The plates were incubated for 5 days, and the minimum cytotoxic dose was estimated from microscopic examination. The IC50 for antiviral effect was estimated from measurements of HCMV DNA in each well by blotting and quantitative specific DNA hybridization, similar to the method of Gadler (Antimicrob. Agents Chemother. 1983, 24, 370-374).

SMILES | IC50 [1] | melting point
CC(C)Nc1nc2c(Cl)c(Cl)ccc2n1[C@@H]1O[C@H](C)[C@@H](O)[C@H]1O [Example 12, 4,5-Dichloro-1-(5deoxy-beta-D-ribofuranosyl)-N-(1-methylethyl)-1H-benzimidazol-2-amine] | 3.5 µM | –
C[C@H]1O[C@@H](n2c(Br)nc3cc(Cl)c(Cl)cc32)[C@H](O)[C@@H]1O (hydrate or solvate) [Example 4, 2-Bromo-5,6-dichloro-1-(5-deoxy-beta-D-ribofuranosyl)-1H-benzimidazole] | – | 133 to 135 °C
CC(C)Nc1nc2ccc(Cl)cc2n1[C@@H]1O[C@H](C)[C@@H](O)[C@H]1O [Example 50, 6-Chloro-1-(5-deoxy-β-D-ribofuranosyl)-N-(1-methylethyl)-1H-benzimidazol-2-amine] | 7 µM | –
CC(C)Nc1nc2ccc(C(F)(F)F)cc2n1[C@@H]1O[C@H](C)[C@@H](O)[C@H]1O [Example 46, 6-trifluoromethyl-1-(5-Deoxy-beta-D-ribofuranosyl)-N-(1-methylethyl)-1H-benzimidazol-2-amine] | 6.1 µM | –
C[C@H]1O[C@@H](n2c(Br)nc3cc(Cl)c(Cl)cc32)[C@H](O)[C@@H]1O [Example 73, 2-Bromo-5,6-dichloro-1-(5-deoxy-β-D-ribofuranosyl)benzimidazole] | – | 145 to 148 °C
CC(C)Nc1nc2cc(F)c(F)c(F)c2n1[C@@H]1O[C@H](C)[C@@H](O)[C@H]1O [Example 20, 5,6,7-Trifluoro-1-(5-deoxy-beta-D-ribofuranosyl)-N-(1-methylethyl)1H-benzimidazol-2-amine] | – | 175 to 178 °C
CC(=O)O[C@@H]1[C@H](OC(C)=O)[C@@H](C)O[C@H]1n1c(Cl)nc2c(Br)c(Cl)c(Cl)cc21 [Example 70, 4-Bromo-2,5,6-trichloro-1-(2,3-di-O-acetyl-5-deoxy-beta-D-ribofuranosyl)-1H-benzimidazole] | – | 138 to 141 °C
CC(=O)O[C@@H]1[C@H](OC(C)=O)[C@@H](C)O[C@H]1n1c(Br)nc2c(Cl)c(Cl)c(Cl)cc21 [Example 69, 2-Bromo4,5,6-trichloro-1-(2,3-di-O-acetyl-5-deoxy-beta-D-ribofuranosyl)-1H-benzimidazole] | – | 160 to 162 °C
CC(=O)O[C@@H]1[C@H](OC(C)=O)[C@@H](C)O[C@H]1n1c(Cl)nc2c(Cl)c(Cl)c(Cl)cc21 [Example 68, 2,4,5,6-Tetrachloro-1-(2,3-di-O-acetyl-5-deoxy-beta-D-ribofuranosyl)-1H-benzimidazole] | – | 126 to 127 °C
C[C@H]1O[C@@H](n2c(NC3CC3)nc3cc(Cl)c(Cl)cc32)[C@H](O)[C@@H]1O [Example 59, 5,6-Dichloro-1-(5-deoxy-beta-D-ribofuranosyl)-N-(cyclopropyl)-1H-benzimidazol-2-amine] | 1.1 µM | –
CC(=O)O[C@@H]1[C@H](OC(C)=O)[C@@H](C)O[C@H]1n1c(Br)nc2c(Br)c(Cl)c(Cl)cc21 [Example 71, 2,4-Dibromo-5,6-dichloro-1-(2,3-di-O-acetyl-5-deoxy-beta-D-ribofuranosyl)-1H-benzimidazole] | – | 152 to 154 °C
CC(C)Nc1nc2cc(C(F)(F)F)ccc2n1[C@@H]1O[C@H](C)[C@@H](O)[C@H]1O [Example 44, 5-Trifluoromethyl-1-(5-Deoxy-beta-D-ribofuranosyl)-N-(1-methylethyl)-1H-benzimidazol-2-amine] | 7 µM | –
C[C@H]1O[C@H](n2c(Cl)nc3cc(Cl)c(Cl)cc32)[C@@H](O)[C@H]1O [Example 72, 2,5,6-Trichloro-1-(5-deoxy-α-D-lyxofuranosyl)1H-benzimidazole] | – | 120 to 122 °C
CC(C)Nc1nc2c(F)c(F)c(F)cc2n1[C@@H]1O[C@H](C)[C@@H](O)[C@H]1O [Example 19, 4,5,6-Trifluoro-1-(5-deoxy-beta-D-ribofuranosyl)-N-(1-methylethyl)-1H-benzimidazol-2-amine] | – | 148 to 151 °C
CC(C)Nc1nc2c(Cl)cc(Cl)cc2n1[C@@H]1O[C@H](C)[C@@H](O)[C@H]1O [Example 9, 4,6-Dichloro-1-(5-deoxy-beta-D-ribofuranosyl)-N-(1-methylethyl)-1H-benzimidazol-2-amine] | 6.9 µM | –
